Source: patent US6706663B2, “Herbicidal 3-heterocyclic substituted benzisothiazole and benzisoxazole compounds” (Wyeth, priority 2000, dated 2004)

Columns and labels:
[1] = system: TRZAWR (Wheat, Winter, cv Riband); assay: Preemergence herbicidal evaluation; assay type: in vivo, Triticum aestivum; conditions: preemergence, rate 0.3000 kg/ha, rated 4-5 weeks after treatment
Summary of the method: (§1)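 Scores (0–9) reflect visual comparison with control plants for stand, vigor, malformation, size and chlorosis. Seeds in potting soil received a post-planting spray of compound in aqueous acetone and grew in a greenhouse until assessment 4–5 weeks later.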

SETVI (Setaria viridis) [2] = assay: Preemergence herbicidal evaluation; assay type: in vivo, (L.) Beau; conditions: preemergence, rate 0.3000 kg/ha, rated 4-5 weeks after treatment
Summary of the method: as §1

[3] = system: ECHCG (Echinochloa crus-galli); assay: Preemergence herbicidal evaluation; assay type: in vivo, (L.) Beau; conditions: preemergence, rate 0.3000 kg/ha, rated 4-5 weeks after treatment
Summary of the method: as §1

GALAP (Galium aparine) [4] = assay: Preemergence herbicidal evaluation; assay type: in vivo; conditions: preemergence, rate 0.3000 kg/ha, rated 4-5 weeks after treatment
Summary of the method: as §1

[5] = system: IPOHE (Ipomoea hederacea); assay: Postemergence herbicidal evaluation; assay type: in vivo, (L.) Jacq.; conditions: postemergence
Summary of the method: (§2)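 Seedlings grown about two weeks in flats, sprayed, then kept under standard greenhouse care. Rated visually 4–5 weeks after treatment on a 0–9 scale (stand, vigour, malformation, size, chlorosis, overall appearance) relative to untreated control; repeat tests averaged.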

GALAP (Galium aparine) [6] = assay: Postemergence herbicidal evaluation; assay type: in vivo; conditions: postemergence, rate 0.3000 kg/ha
Summary of the method: as §2

SETVI (Setaria viridis) [7] = assay: Postemergence herbicidal evaluation; assay type: in vivo, (L.) Beau; conditions: postemergence
Summary of the method: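 Ratings use a 0-9 visual scale covering stand, vigor, malformation, size, chlorosis and appearance versus a control, scored 4-5 weeks post-spray. Roughly two-week-old seedlings received about 0.0040-1.000 kg/ha active, applied in 50/50 acetone/water with 0.5% TWEEN 20. Multiple tests per compound were averaged.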

ORYSAT (Rice, Tebonnet) [8] = assay: Postemergence herbicidal evaluation; assay type: in vivo, Oryza sativa, (L.) Tebonnet; conditions: postemergence, rate 0.3000 kg/ha
Summary of the method: as §2

ORYSAT (Rice, Tebonnet) [9] = assay: Preemergence herbicidal evaluation; assay type: in vivo, Oryza sativa, (L.) Tebonnet; conditions: preemergence, rate 0.3000 kg/ha, rated 4-5 weeks after treatment
[10] = system: ABUTH (Abutilon theophrasti); assay: Preemergence herbicidal evaluation; assay type: in vivo, Medic.; conditions: preemergence, rate 0.3000 kg/ha, rated 4-5 weeks after treatment
[11] = system: ABUTH (Abutilon theophrasti); assay: Postemergence herbicidal evaluation; assay type: in vivo, Medic.; conditions: postemergence
Summary of the method: as §2

ZEAMX (Corn, Field) [12] = assay: Postemergence herbicidal evaluation; assay type: in vivo, Zea mays, L.; conditions: postemergence
Summary of the method: as §2

[13] = system: GLXMAW (Soybean, Williams); assay: Preemergence herbicidal evaluation; assay type: in vivo, Glycine max, (L.) Merr. cv Williams; conditions: preemergence, rate 0.3000 kg/ha, rated 4-5 weeks after treatment
IPOSS (Ipomoea Spp.) [14] = assay: Postemergence herbicidal evaluation; assay type: in vivo; conditions: rate 0.3000 kg/ha
Method: (§3) In the tests, seedling plants are grown in jiffy flats for about two weeks. The test compounds are dispersed in 50/50 acetone/water mixtures containing 0.5% TWEEN® 20, a polyoxyethylene sorbitan monolaurate surfactant of Atlas Chemical Industries, in sufficient quantities to provide the equivalent of about 0.0040 kg to 1.000 kg per hectare of active compound when applied to the plants through a spray nozzle operating at 40 psi for a predetermined time. After spraying, the plants are placed on greenhouse benches and are cared for in accordance with conventional greenhouse procedures. From four to five weeks after treatment, the seedling plants are examined and rated according to the rating system set forth below. Where more than one test is involved for a given compound, the data are averaged.
(§4) Results of herbicide evaluation are expressed on a rating scale (0-9). The scale is based upon a visual observation of plant stand, vigor, malformation, size, chlorosis and overall plant appearance as compared with a control.

[15] = system: GLXMAW (Soybean, Williams); assay: Postemergence herbicidal evaluation; assay type: in vivo, Glycine max, (L.) Merr. cv Williams; conditions: postemergence, rate 0.3000 kg/ha
Summary of the method: as §2

ZEAMX (Corn, Field) [16] = assay: Preemergence herbicidal evaluation; assay type: in vivo, Zea mays, L.; conditions: preemergence, rate 0.3000 kg/ha, rated 4-5 weeks after treatment
[17] = system: AMBEL (Ambrosia artemisifolia); assay: Preemergence herbicidal evaluation; assay type: in vivo, L.; conditions: preemergence, rate 0.3000 kg/ha, rated 4-5 weeks after treatment
Summary of the method: as §1

[18] = system: CHEAL (Chenopodium album); assay: Preemergence herbicidal evaluation; assay type: in vivo, L.; conditions: preemergence, rate 0.3000 kg/ha, rated 4-5 weeks after treatment
Summary of the method: as §1

[19] = system: ECHCG (Echinochloa crus-galli); assay: Postemergence herbicidal evaluation; assay type: in vivo, (L.) Beau; conditions: postemergence
Summary of the method: as §2

[20] = system: AMBEL (Ambrosia artemisifolia); assay: Postemergence herbicidal evaluation; assay type: in vivo, L.; conditions: postemergence
Summary of the method: as §2

[21] = system: CHEAL (Chenopodium album); assay: Postemergence herbicidal evaluation; assay type: in vivo, L.; conditions: postemergence
Summary of the method: as §2

GLXMA (Soybean) = assay: Postemergence herbicidal evaluation; assay type: in vivo, Glycine max, (L.) Merr.; conditions: postemergence
Method: as §3, §4

[22] = system: TRZAWR (Wheat, Winter, cv Riband); assay: Postemergence herbicidal evaluation; assay type: in vivo, Triticum aestivum; conditions: postemergence, rate 0.3000 kg/ha
Summary of the method: as §2

IPOSS (Ipomoea Spp.) [23] = assay: Preemergence herbicidal evaluation; assay type: in vivo; conditions: rate 0.3000 kg/ha, rated 4-5 weeks after treatment
Text: as §4
The preemergence herbicidal activity of the test compounds of the present invention is exemplified by the following tests in which the seeds of a variety of monocotyledonous and dicotyledonous plants are separately mixed with potting soil and planted on top of approximately one inch of soil in separate pint cups. After planting, the cups are sprayed with the selected aqueous acetone solution containing test compound in sufficient quantity to provide the equivalent of about […] per hectare of test compound per cup. The treated cups are then placed on greenhouse benches, watered and cared for in accordance with conventional greenhouse procedures. From four to five weeks after treatment, the tests are terminated and each cup is examined and rated according to the rating system provided in Example 87. The plant species used and the compounds evaluated are the same as those shown in Example 87.

Cn1c(C(F)(F)F)cc(=O)n(-c2ccc3snc(C4(O)C(=O)NC(=N)C4(C)C)c3c2)c1=O (centres unmarked) [Compound 96]
Preemergence herbicidal rating TRZAWR [1]: 0.0
Preemergence herbicidal rating SETVI (SETVI (Setaria viridis) [2]): 0.0
Preemergence herbicidal rating ECHCG [3]: 0.0
Preemergence herbicidal rating GALAP (GALAP (Galium aparine) [4]): 6.0
IPOHE herbicidal rating ([5]; rate 0.0320 kg/ha): 3.0
IPOHE herbicidal rating ([5]; rate 0.0620 kg/ha): 6.0
GALAP herbicidal rating (GALAP (Galium aparine) [6]): 0.0
SETVI herbicidal rating (SETVI (Setaria viridis) [7]; rate 0.0320 kg/ha): 2.0
SETVI herbicidal rating (SETVI (Setaria viridis) [7]; rate 0.0620 kg/ha): 2.0
SETVI herbicidal rating (SETVI (Setaria viridis) [7]; rate 0.3000 kg/ha): 4.0
ORYSAT herbicidal rating (ORYSAT (Rice, Tebonnet) [8]): 0.0
Preemergence herbicidal rating ORYSAT (ORYSAT (Rice, Tebonnet) [9]): 0.0
Preemergence herbicidal rating ABUTH [10]: 6.0
ABUTH herbicidal rating ([11]; rate 0.0320 kg/ha): 3.0
ABUTH herbicidal rating ([11]; rate 0.0620 kg/ha): 4.0
ABUTH herbicidal rating ([11]; rate 0.3000 kg/ha): 9.0
ZEAMX herbicidal rating (ZEAMX (Corn, Field) [12]; rate 0.0320 kg/ha): 3.0
ZEAMX herbicidal rating (ZEAMX (Corn, Field) [12]; rate 0.0620 kg/ha): 3.0
ZEAMX herbicidal rating (ZEAMX (Corn, Field) [12]; rate 0.3000 kg/ha): 2.0
Preemergence herbicidal rating GLXMAW [13]: 0.0
IPOSS herbicidal rating (IPOSS (Ipomoea Spp.) [14]): 3.0
GLXMAW herbicidal rating [15]: 5.0
Preemergence herbicidal rating ZEAMX (ZEAMX (Corn, Field) [16]): 0.0
Preemergence herbicidal rating AMBEL [17]: 0.0
Preemergence herbicidal rating CHEAL [18]: 7.0
ECHCG herbicidal rating ([19]; rate 0.0320 kg/ha): 1.0
ECHCG herbicidal rating ([19]; rate 0.0620 kg/ha): 2.0
ECHCG herbicidal rating ([19]; rate 0.3000 kg/ha): 0.0
AMBEL herbicidal rating ([20]; rate 0.0320 kg/ha): 4.0
AMBEL herbicidal rating ([20]; rate 0.0620 kg/ha): 5.0
AMBEL herbicidal rating ([20]; rate 0.3000 kg/ha): 6.0
CHEAL herbicidal rating ([21]; rate 0.0320 kg/ha): 3.0
CHEAL herbicidal rating ([21]; rate 0.0620 kg/ha): 4.0
CHEAL herbicidal rating ([21]; rate 0.3000 kg/ha): 9.0
GLXMA herbicidal rating (GLXMA (Soybean); rate 0.0320 kg/ha): 5.5
GLXMA herbicidal rating (GLXMA (Soybean); rate 0.0620 kg/ha): 6.0
TRZAWR herbicidal rating [22]: 0.0
Preemergence herbicidal rating IPOSS (IPOSS (Ipomoea Spp.) [23]): 4.0
